Source: patent US4435381A, “Thiouronium phosphonates for use in dental treatments” (priority 1983, dated 1984)
≈ marks a conversion by molar mass, not a printed value. Read-outs that look alike come from different tables or passages of the source.

What was measured:
[1] = tested on: S. mutans; assay: Acid inhibition (AI): 0.1 normal NaOH needed to neutralize acid produced by S. mutans from sucrose after 48 hours; type: cell-based; conditions: trypticase-yeast medium containing sucrose, 48 hours incubation
Protocol: Acid inhibition (AI) is a measure of acid production when S. mutans attacks sucrose to form pyruvic and lactic acids. The organism is added to a culture medium (trypticase-yeast) containing sucrose, and after 48 hours incubation, the quantity of 0.1 normal NaOH (in ml) needed to neutralize the acid is measured.

[2] = tested on: S. mutans; assay: Minimum inhibitory and minimum bactericidal concentrations against S. mutans grown in a typical culture medium; type: cell-based; conditions: Streptococcus mutans; for MBC: read-out: MBC (minimum bactericidal concentration); for MIC: read-out: MIC (minimum inhibitory concentration)
[3] = tested on: S. mutans; assay: Plaque inhibition in the hamster (S. mutans infected); type: in vivo, Golden Syrian hamsters; conditions: Test 2; mean scoring value (approximate percentage of surface); 28 days, 0.3% Methocel suspension, 200 μl per treatment; Methocel control 13.96 ± 1.49; significantly different from control at p ≤ 0.01
Protocol: Representative thiouronium phosphonates were tested against hamsters as in vivo subjects, as follows.
Golden Syrian hamsters (3-4 wks of age), obtained from GIBCO Animal Resources Laboratories, Madison, Wis. were used in all studies. Upon receipt, the animals were randomly distributed into cages of three animals of the same sex per cage. Experimental groups consisted of twelve animals, six males and six females. Food (Diet 2000, General Biochemicals Co.) and deionized water were allowed ad libitum. Food consumption was monitored three times a week while animal weights were checked twice a week.
After an acclimation period of 10 days, the oral cavities of the hamsters were infected with a cariogenic strain of S. mutans (ATCC 10449, SR 500). This was accomplished by injecting […] of a 24 hr. culture grown static in Todd-Hewitt broth (supplemented with 0.5% lactalbumin hydrolysate) into their mouths, and by adding 2 ml/100 ml of the culture to their drinking water. This was repeated daily for four days. On the fifth day, fresh water was given to the hamsters.
To insure that the organism had actually implanted, the oral cavity of each hamster was swabbed on the sixth day. […]
After all data had been recorded, the codes were broken, the data re-grouped and the various treatment groups compared by a non-parametric one-way analysis of variance.

[4] = against S. mutans grown in a typical culture medium

SMILES | AI (acid inhibition; amount of 0.1 normal NaOH required) [1] [mL] | MBC [2] [mg/L] | MIC [2] [mg/L] | MBC [2, 4] [mg/L] | MIC [2, 4] [mg/L] | Molar Surface Covered with Plaque [3]
CCCCCCCCCCCCCCSC(=N)N [n=14, R=CH3, n-Tetradecyl thiouronium methanephosphonate] | 0.5 | 7.8 (≈ 28.6 µM) | 1 (≈ 3.67 µM) | – | – | –
CCCCCCCCCCCSC(=N)N [n=11, R=C6 H5] | 0.5 | – | – | 2 (≈ 8.68 µM) | 1 (≈ 4.34 µM) | –
CCCCCCCCCCSC(=N)N [n=10, R=C6 H5, n-Decyl thiouronium phenylphosphonate] | 1.25 | – | – | 3.9 (≈ 18 µM) | 2 (≈ 9.24 µM) | –
CCCCCCCCCCCCCSC(=N)N [n=13, R=C6 H5, Tridecyl thiouronium phenylphosphonate] | 0.3 | – | – | 2 (≈ 7.74 µM) | 1 (≈ 3.87 µM) | 7.06 ± 1.16
